Measurements published in ChEMBL document CHEMBL3046700, “Identification of novel inhibitors of HIV-1 integrase using pharmacophore-based virtual screening combined with molecular docking strategies” (Med Chem Res, 2013).

What follows are compounds tested against Human immunodeficiency virus type 1 integrase (Human immunodeficiency virus 1, UniProt Q7ZJM1) (assay: Inhibition of Human immunodeficiency virus 1 integrase strand transfer activity using [32P]5'end-labeled linear 21 mer as substrate incubated for 30 min prior to substrate addition measured after 1 hr).
Sequence of Human immunodeficiency virus type 1 integrase (Q7ZJM1 whole entry): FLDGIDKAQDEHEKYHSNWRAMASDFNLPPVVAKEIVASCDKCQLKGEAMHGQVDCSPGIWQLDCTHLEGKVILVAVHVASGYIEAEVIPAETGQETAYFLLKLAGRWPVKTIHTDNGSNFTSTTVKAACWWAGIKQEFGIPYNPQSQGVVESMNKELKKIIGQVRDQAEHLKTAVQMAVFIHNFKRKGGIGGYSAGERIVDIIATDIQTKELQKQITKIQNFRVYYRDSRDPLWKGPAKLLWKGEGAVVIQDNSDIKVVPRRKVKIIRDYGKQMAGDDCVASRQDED

**Q.** For `Cc1ccc(-n2ncnc2-c2nc3ccccc3nc2NS(=O)(=O)c2cc(C(=O)Nc3ccccc3)c(Cl)cc2S)cc1`, which IC50 is on record?
**A.** Its IC50 is 10 µM.

**Q.** With `O=C1NC(=S)SC1NS(=O)(=O)c1ccc(/N=N/c2ncccn2)cc1` (stereo not given) as the compound, how does the IC50 read?
**A.** The IC50 was 14.1 µM.

**Q.** Which IC50 does the source give for `NNS(=O)(=O)c1cccc(OCC(=O)O)c1` here?
**A.** Its IC50 is 8.7 µM.

**Q.** Which IC50 does the source give for `O=C(Oc1ccc(/C=C/S(=O)(=O)CS(=O)(=O)/C=C/c2ccc(OC(=O)c3ccccc3)c(OC(=O)c3ccccc3)c2)cc1OC(=O)c1ccccc1)c1ccccc1` here?
**A.** Its IC50 is 700 µM.

**Q.** With `Cc1cc2nc3nc(N)nc(NS(=O)(=O)c4cc(C)c(Cl)cc4S)n3c2cc1C` as the compound, how does the IC50 read?
**A.** Its IC50 is 7.41 µM.

**Q.** For `Cc1cc(S(=O)(=O)Nc2nnc3c4scc(C)c4ncn23)c(S)cc1Cl`, which IC50 is on record?
**A.** The IC50 was 4.26 µM.

**Q.** How did the IC50 turn out when `COc1ccc(C(=O)C2=NS(=O)(=O)c3cc(C)c(Cl)cc3S2)cc1` was run?
**A.** Its IC50 is 12 µM.

**Q.** `O=S(=O)(/C=C/c1ccc(O)c(O)c1O)CS(=O)(=O)/C=C/c1ccc(O)c(O)c1O` was tested. Which IC50 did it give?
**A.** The IC50 was 0.9 µM.

**Q.** `CC(C)c1nc(C(=O)NCc2ccc(F)cc2)c(O)c(=O)n1C` was tested. Which IC50 did it give?
**A.** Its IC50 is 0.14 µM.

**Q.** How did the IC50 turn out when `Cc1cc2c(cc1Cl)SC(C(=O)c1ccc(F)cc1)=NS2(=O)=O` was run?
**A.** The IC50 was 42 µM.
